Assay results from patent US7141592B2, “Substituted oxadiazolidinediones” (Wyeth, priority 2003, dated 2006).

Biological target: T1, recombinant human plasminogen activator inhibitor-1 (PAI-1) (Homo sapiens, UniProt P05121)
T1 construct: purchased Molecular Innovations, Royal Oak, Mich
Experiment: Primary screen for the PAI-1 inhibition (chromogenic tPA activity, Spectrozyme-tPA)
Assay type: biochemical
Details: compound at 100 μM
Description: Test compounds are dissolved in DMSO at a final concentration of 10 mM, then diluted 100× in physiologic buffer. The inhibitory assay is initiated by the addition of the substituted oxadiazolidinedione (1–100 μM final concentration, maximun DMSO concentration of 0.2%) in a pH 6.6 buffer containing 140 nM recombinant human plasminogen activator inhibitor-1 (PAI-1; Molecular Innovations, Royal Oak, Mich.). Following a 1 hour incubation at room temperature, 70 nM of recombinant human tissue plasminogen activator (tPA) is added, and the combination of the substituted oxadiazolidinedione, PAI-1 and tPA is incubated for an additional 30 minutes. Following the second incubation, Spectrozyme-tPA (American Diagnostica, Greenwich, Conn.), a chromogenic substrate for tPA, is added and absorbance read at 405 nm at 0 and 60 minutes. Relative PAI-1 inhibition is equal to the residual tPA activity in the presence of the test compound and PAI-1. Control treatments include the complete inhibition of tPA by PAI-1 at the molar ratio employed (2:1), and the absence of any effect of the substituted oxadiazolidinedione on tPA alone.

T1 sequence (P05121 24-402): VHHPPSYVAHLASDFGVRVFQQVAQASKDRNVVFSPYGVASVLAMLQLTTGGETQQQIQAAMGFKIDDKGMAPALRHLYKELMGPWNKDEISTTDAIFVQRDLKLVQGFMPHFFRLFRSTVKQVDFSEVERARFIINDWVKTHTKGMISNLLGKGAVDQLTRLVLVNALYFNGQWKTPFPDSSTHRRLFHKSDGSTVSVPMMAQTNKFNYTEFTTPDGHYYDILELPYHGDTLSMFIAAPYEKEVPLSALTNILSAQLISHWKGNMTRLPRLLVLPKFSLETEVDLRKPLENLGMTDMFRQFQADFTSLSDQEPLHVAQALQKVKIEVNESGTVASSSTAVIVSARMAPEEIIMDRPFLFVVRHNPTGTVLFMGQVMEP

Row | Structure (SMILES) | inhibition at 100 µM
1 | C#CCn1cc(Cn2oc(=O)[nH]c2=O)c2cc(OCc3ccc(C(C)(C)C)cc3)ccc21 [Compound 23, 2-{[5-[(4-tert-butylbenzyl)oxy]-1-(2-propynyl)-1H-indol-3-yl]methyl}-1,2,4-oxadiazolidine-3,5-dione] | 91%
2 | C#CCn1cc(Cn2oc(=O)[nH]c2=O)c2cc(OCc3ccc(Br)cc3)ccc21 [Compound 24, 2-{[5-[(4-bromobenzyl)oxy]-1-(2-propynyl)-1H-indol-3-yl]methyl}-1,2,4-oxadiazolidine-3,5-dione] | 68%
3 | C=CCn1cc(Cn2oc(=O)[nH]c2=O)c2cc(OCc3ccc(Br)cc3)ccc21 [Compound 25, 2-({1-allyl-5-[(4-bromobenzyl)oxy]-1H-indol-3-yl}methyl)-1,2,4-oxadiazolidine-3,5-dione] | 64%
4 | C#CCn1cc(Cn2oc(=O)[nH]c2=O)c2cc(OCc3cccc(Br)c3)ccc21 [Compound 26, 2-{[5-[(3-bromobenzyl)oxy]-1-(2-propynyl)-1H-indol-3-yl]methyl}-1,2,4-oxadiazolidine-3,5-dione] | 100%
5 | C=CCn1cc(Cn2oc(=O)[nH]c2=O)c2cc(OCc3cccc(Br)c3)ccc21 [Compound 27, 2-({1-allyl-5-[(3-bromobenzyl)oxy]-1H-indol-3-yl}methyl)-1,2,4-oxadiazolidine-3,5-dione] | 100%
6 | C#CCn1cc(Cn2oc(=O)[nH]c2=O)c2cc(OCc3cccc(Cl)c3)ccc21 [Compound 28, 2-{[5-[(3-chlorobenzyl)oxy]-1-(2-propynyl)-1H-indol-3-yl]methyl}-1,2,4-oxadiazolidine-3,5-dione] | 48%
7 | C=CCn1cc(Cn2oc(=O)[nH]c2=O)c2cc(OCc3cccc(C(F)(F)F)c3)ccc21 [Compound 29, 2-[(1-allyl-5-{[3-(trifluoromethyl)benzyl]oxy}-1H-indol-3-yl)methyl]-1,2,4-oxadiazolidine-3,5-dione] | 79%
8 | C=CCn1cc(Cn2oc(=O)[nH]c2=O)c2cc(OCc3ccccc3Cl)ccc21 [Compound 33, 2-({1-allyl-5-[(2-chlorobenzyl)oxy]-1H-indol-3-yl}methyl)-1,2,4-oxadiazolidine-3,5-dione] | 91%
9 | C=CCn1cc(Cn2oc(=O)[nH]c2=O)c2cc(OCc3ccc(Cl)c(Cl)c3)ccc21 [Compound 34, 2-({1-allyl-5-[(3,4-dichlorobenzyl)oxy]-1H-indol-3-yl}methyl)-1,2,4-oxadiazolidine-3,5-dione] | 87%
10 | O=c1[nH]c(=O)n(Cc2cccc(-c3cccc(OCc4ccccc4Cl)c3)c2)o1 [Compound 36, 2-({3′-[(2-chlorobenzyl)oxy]-1,1′-biphenyl-3-yl}methyl)-1,2,4-oxadiazolidine-3,5-dione] | 100%
11 | O=c1[nH]c(=O)n(Cc2cccc(-c3cccc(OCc4cc(C(F)(F)F)cc(C(F)(F)F)c4)c3)c2)o1 [Compound 38, 2-[(3′-{[3,5-bis(trifluoromethyl)benzyl]oxy}-1,1′-biphenyl-3-yl)methyl]-1,2,4-oxadiazolidine-3,5-dione] | 69%
12 | O=c1[nH]c(=O)n(Cc2cccc(-c3cccc(OCc4cccc(Cl)c4)c3)c2)o1 [Compound 39, 2-({3′-[(3-chlorobenzyl)oxy]-1,1′-biphenyl-3-yl}methyl)-1,2,4-oxadiazolidine-3,5-dione] | 99%
13 | O=c1[nH]c(=O)n(Cc2cccc(-c3cccc(OCc4ccccc4)c3)c2)o1 [Compound 40, 2-{[3′-(benzyloxy)-1,1′-biphenyl-3-yl]methyl}-1,2,4-oxadiazolidine-3,5-dione] | 96%
14 | O=c1[nH]c(=O)n(Cc2cccc(-c3cccc(OCc4ccc(Cl)cc4)c3)c2)o1 [Compound 42, 2-({3′-[(4-chlorobenzyl)oxy]-1,1′-biphenyl-3-yl}methyl)-1,2,4-oxadiazolidine-3,5-dione] | 100%
15 | O=c1[nH]c(=O)n(Cc2cccc(-c3cccc(OCc4ccc(Cl)c(Cl)c4)c3)c2)o1 [Compound 43, 2-({3′-[(3,4-dichlorobenzyl)oxy]-1,1′-biphenyl-3-yl}methyl)-1,2,4-oxadiazolidine-3,5-dione] | 100%
16 | O=c1[nH]c(=O)n(Cc2cccc(-c3cccc(OCc4ccc5ccccc5c4)c3)c2)o1 [Compound 44, 2-{[3′-(2-naphthylmethoxy)-1,1′-biphenyl-3-yl]methyl}-1,2,4-oxadiazolidine-3,5-dione] | 28%
17 | Cc1ccc(COc2cccc(-c3cccc(Cn4oc(=O)[nH]c4=O)c3)c2)cc1 [Compound 45, 2-({3′-[(4-methylbenzyl)oxy]-1,1′-biphenyl-3-yl}methyl)-1,2,4-oxadiazolidine-3,5-dione] | 94%
18 | Cc1cccc(COc2cccc(-c3cccc(Cn4oc(=O)[nH]c4=O)c3)c2)c1 [Compound 46, 2-({3′-[(3-methylbenzyl)oxy]-1,1′-biphenyl-3-yl}methyl)-1,2,4-oxadiazolidine-3,5-dione] | 80%
19 | O=c1[nH]c(=O)n(Cc2cccc(-c3cccc(OCc4c(Cl)cccc4Cl)c3)c2)o1 [Compound 47, 2-({3′-[(2,6-dichlorobenzyl)oxy]-1,1′-biphenyl-3-yl}methyl)-1,2,4-oxadiazolidine-3,5-dione] | 88%
20 | CC(C)(C)c1ccc(COc2cccc(-c3ccc(Cn4oc(=O)[nH]c4=O)cc3)c2)cc1 [Compound 53, 2-({3′-[(4-tert-butylbenzyl)oxy]-1,1′-biphenyl-4-yl}methyl)-1,2,4-oxadiazolidine-3,5-dione] | 60%
21 | O=c1[nH]c(=O)n(Cc2ccc(-c3cccc(OCc4ccc(Br)cc4)c3)cc2)o1 [Compound 54, 2-({3′-[(4-bromobenzyl)oxy]-1,1′-biphenyl-4-yl}methyl)-1,2,4-oxadiazolidine-3,5-dione] | 10%
22 | O=c1[nH]c(=O)n(Cc2ccc(-c3ccc(OCc4cccc(Br)c4)cc3)cc2)o1 [Compound 55, 2-({4′-[(3-bromobenzyl)oxy]-1,1′-biphenyl-4-yl}methyl)-1,2,4-oxadiazolidine-3,5-dione] | 41%
23 | O=c1[nH]c(=O)n(Cc2ccc(C#Cc3ccccc3)cc2)o1 [Compound 56, 2-[4-(phenylethynyl)benzyl]-1,2,4-oxadiazolidine-3,5-dione] | 65%
24 | CCCCC#Cc1ccc(Cn2oc(=O)[nH]c2=O)cc1 [Compound 57, 2-(4-hex-1-ynylbenzyl)-1,2,4-oxadiazolidine-3,5-dione] | 56%
25 | O=c1[nH]c(=O)n(Cc2cccc(C#Cc3ccccc3)c2)o1 [Compound 60, 2-[3-(phenylethynyl)benzyl]-1,2,4-oxadiazolidine-3,5-dione] | 38%

More lines, now with the values ahead:

Row | inhibition at 100 µM | Structure (SMILES)
26 | 87% | O=c1[nH]c(=O)n(Cc2ccc(C#CCOc3cc(C(F)(F)F)cc(C(F)(F)F)c3)cc2)o1 [Compound 61, 2-(4-{3-[3,5-bis(trifluoromethyl)phenoxy]prop-1-ynyl}benzyl)-1,2,4-oxadiazolidine-3,5-dione]
27 | 82% | O=c1[nH]c(=O)n(Cc2ccc(C#CCOc3cc(Cl)cc(Cl)c3)cc2)o1 [Compound 62, 2-{4-[3-(3,5-dichlorophenoxy)prop-1-ynyl]benzyl}-1,2,4-oxadiazolidine-3,5-dione]
28 | 85% | O=c1[nH]c(=O)n(Cc2ccc(C#CCOc3cccc(Cl)c3)cc2)o1 [Compound 63, 2-{4-[3-(3-chlorophenoxy)prop-1-ynyl]benzyl}-1,2,4-oxadiazolidine-3,5-dione]
29 | 77% | CC(C)(C)c1ccc(OCC#Cc2cccc(Cn3oc(=O)[nH]c3=O)c2)cc1 [Compound 65, 2-{3-[3-(4-tert-butylphenoxy)prop-1-ynyl]benzyl}-1,2,4-oxadiazolidine-3,5-dione]
30 | 85% | O=c1[nH]c(=O)n(Cc2cccc(C#CCOc3ccc(Br)cc3)c2)o1 [Compound 66, 2-{3-[3-(4-bromophenoxy)prop-1-ynyl]benzyl}-1,2,4-oxadiazolidine-3,5-dione]
31 | 84% | O=c1[nH]c(=O)n(Cc2cccc(C#CCOc3cc(C(F)(F)F)cc(C(F)(F)F)c3)c2)o1 [Compound 67, 2-(3-{3-[3,5-bis(trifluoromethyl)phenoxy]prop-1-ynyl}benzyl)-1,2,4-oxadiazolidine-3,5-dione]
32 | 93% | O=c1[nH]c(=O)n(Cc2cccc(C#CCOc3cc(Cl)cc(Cl)c3)c2)o1 [Compound 68, 2-{3-[3-(3,5-dichlorophenoxy)prop-1-ynyl]benzyl}-1,2,4-oxadiazolidine-3,5-dione]
33 | 85% | O=c1[nH]c(=O)n(Cc2cccc(C#CCOc3cccc(Cl)c3)c2)o1 [Compound 69, 2-{3-[3-(3-chlorophenoxy)prop-1-ynyl]benzyl}-1,2,4-oxadiazolidine-3,5-dione]
34 | 85% | O=c1[nH]c(=O)n(Cc2cc(OCc3cccc(Cl)c3)cc(OCc3cccc(Cl)c3)c2)o1 [Compound 71, 2-{3,5-bis[(3-chlorobenzyl)oxy]benzyl}-1,2,4-oxadiazolidine-3,5-dione]
35 | 87% | O=c1[nH]c(=O)n(Cc2cc(OCc3ccc(C(F)(F)F)cc3)cc(OCc3ccc(C(F)(F)F)cc3)c2)o1 [Compound 72, 2-(3,5-bis{[4-(trifluoromethyl)benzyl]oxy}benzyl)-1,2,4-oxadiazolidine-3,5-dione]
36 | 81% | Cc1cccc(COc2cc(Cn3oc(=O)[nH]c3=O)cc(OCc3cccc(C)c3)c2)c1 [Compound 73, 2-{3,5-bis[(3-methylbenzyl)oxy]benzyl}-1,2,4-oxadiazolidine-3,5-dione]
